Test [1] can be described thus: Activation of Flag/His-tagged human recombinant OGG1 (1 to 345 residues) by fluorescence based analysis.
Test [2] is described as follows: Upregulation of BRCA1 expression in mouse Bone marrow cells at 5 uM. In kind it is functional, Bone marrow cell.
Test [3] is described as follows: Upregulation of BRCA2 expression in mouse Bone marrow cells at 5 uM. In kind it is functional, Bone marrow cell.
Test [4] is described as follows: Activation of rat liver AMPK.
Test [5] deals with T1, NAD-dependent protein deacetylase sirtuin-1 (Homo sapiens) (UniProt Q96EB6).
T1 sequence (whole entry): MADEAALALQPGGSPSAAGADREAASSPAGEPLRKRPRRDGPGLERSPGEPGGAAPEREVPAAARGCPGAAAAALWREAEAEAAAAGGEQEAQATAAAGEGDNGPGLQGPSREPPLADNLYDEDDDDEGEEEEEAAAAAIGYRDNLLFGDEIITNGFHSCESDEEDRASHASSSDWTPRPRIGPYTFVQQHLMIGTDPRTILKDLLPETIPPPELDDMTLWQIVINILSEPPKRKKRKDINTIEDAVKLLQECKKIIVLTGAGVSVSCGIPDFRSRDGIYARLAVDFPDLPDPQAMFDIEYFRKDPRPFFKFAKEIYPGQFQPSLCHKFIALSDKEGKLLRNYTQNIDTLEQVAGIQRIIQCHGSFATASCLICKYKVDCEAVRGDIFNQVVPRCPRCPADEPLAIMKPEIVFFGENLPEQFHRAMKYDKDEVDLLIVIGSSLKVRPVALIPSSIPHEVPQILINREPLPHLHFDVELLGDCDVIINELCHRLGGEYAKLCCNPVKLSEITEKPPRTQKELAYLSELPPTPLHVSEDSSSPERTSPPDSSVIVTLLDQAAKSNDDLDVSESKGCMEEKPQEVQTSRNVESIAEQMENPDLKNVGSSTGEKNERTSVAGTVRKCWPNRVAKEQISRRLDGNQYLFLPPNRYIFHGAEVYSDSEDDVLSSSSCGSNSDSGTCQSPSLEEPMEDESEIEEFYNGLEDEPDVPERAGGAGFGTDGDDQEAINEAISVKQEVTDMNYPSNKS
As to the kind of experiment: Activation of N-terminal Hex/Histidine-tagged human SIRT1 extracted from Escherichia coli BL21 (DE3) by Fluorescence polarization assay. The following applies: filed as activator.

Test [6] in a line: Upregulation of OGG1 expression in mouse MCT cells assessed as fold increase at 2 mM.
For test [7], the species on record is Mus musculus. As to the kind of experiment: Reversal of oxidative stress-induced DNA damage in mouse model assessed as increase in expression of XRCC1 by measuring fold change.
The species entered for test [8] is Mus musculus. Nature of the test: Reversal of oxidative stress-induced DNA damage in mouse model assessed as increase in expression of OGG1 by measuring fold change.
The species named for test [9] is Mus musculus. Nature of the test: Reversal of oxidative stress-induced DNA damage in mouse model assessed as increase in expression of APE1 by measuring fold change.
In another test the test system is HCC1937. As to the kind of experiment: Antitumor activity against human HCC1937 cells harboring BRAC1 mutant xenografted in NOD/SCID mouse assessed as increase in survival rate at 250 mg/kg, ip measured after 60 days relative to control. The test is classed as functional. Conditions: time 60 day.
A short description of test [10]: Induction of DNA repair activity in human SUM149PT cells harboring BRCA1 mutant co-expressing GFP reporter gene at 100 uM relative to control. The test is classed as functional.
A short description of test [11]: Upregulation of OGG1 level in human A549 cells at 30 uM measured for 48 hrs relative to control. The test is classed as functional.
A short description of test [12]: Induction of DNA repair activity in human SUM149PT cells harboring BRCA1 mutant co-expressing GFP reporter gene at 1 uM relative to control. In kind it is functional.
Test [13] in a line: Activation of MTH1 (unknown origin). Also on record: species or system Homo sapiens.
The subject of another test is HCC1806. Nature of the test: Antiproliferative activity against human HCC1806 cells assessed as reduction in cell viability incubated for 72 hrs by MTT assay. The following applies: HCC1806, 72 h. The test is classed as functional, cell-based.

For `Cc1cnc(N2CCN3CCCC3C2)nc1Oc1ccc(-n2ccnc2)cc1` (stereo not given), the EC50 in [1] stood at 4.6 µM.

Turning to `COc1cc(/C=C/C(=O)CC(=O)/C=C/c2ccc(O)c(OC)c2)ccc1O` [CURCUMIN], the Activity in [2] and in [3] was 170% in each case. The compound `Nc1ncnc2c1ncn2[C@H]1O[C@@H](COP(=O)(O)O)[C@H](O)[C@@H]1O` returned an EC50 in test [4] of 6 µM. `COc1cc(C(=O)Nc2ccccc2-c2cn3c(CN4CCNCC4)csc3n2)cc(OC)c1OC` displayed an EC1.5 in [5] of 2.9 µM. As to `NC(=O)c1ncn([C@H]2O[C@@H](COP(=O)(O)O)[C@H](O)[C@@H]2O)c1N`, the “fold change (FC)” value in [6] worked out at 5. Regarding `Cc1nc(-c2cccnc2)sc1C(=O)Nc1ccccc1-c1cn2c(CN3CCOCC3)csc2n1`, the EC1.5 in test [5] worked out at 0.43 µM.

As to `Cc1cc(N[C@@H](C)C(=O)Nc2ccccc2)nc(Nc2ccccc2)n1`, the EC50 in [1] was determined as 4.1 µM.

For `O=c1c(O)c(-c2ccc(O)c(O)c2)oc2cc(O)cc(O)c12` [QUERCETIN], the “fold change (FC)” value in the test filed under Mus musculus [7], in the test listed under Mus musculus [8] and in the test listed under Mus musculus [9] was 2 each time. In [4], `N#Cc1c(O)c2c(-c3ccc(-c4ccccc4O)cc3)csc2[nH]c1=O` yielded an EC50 of 0.116 µM. For the compound `NC(CO)C(=O)NNCc1ccc(O)c(O)c1O` (stereo not given) [BENSERAZIDE], the Activity result in the test with HCC1937 is “<=70%”; in test [10], 60%. In turn, `OC(Cn1ccnc1)(c1ccc(Cl)cc1Cl)C1CCCCC1` (stereo not given) came in with an Activity in test [11] of 142.3%. Further, the EC50 in test [1] stood at 5 µM. As to `CNc1nnc(C)c2c1cc(-c1ccc(F)cc1)n2C`, the EC50 in test [1] came out at 5.1 µM. As to `CC(=O)c1ccc(S(=O)(=O)NC(=O)NC2CCCCC2)cc1` [ACETOHEXAMIDE], in test [12], the Activity is listed as 90%.

In the case of `O=C(Nc1ccc(CN2CCOCC2)c(C(F)(F)F)c1)c1ccc(C#Cc2cccc3cnccc23)cn1`, the response in test [13] was half-maximal at 5.5 µM (EC50). In the test with HCC1806, the IC50 came to 10 µM.
